Reference: PubChem BioAssay AID248 (DTP/NCI, 2004)
“And” between values parts separate entries of the source, which are not always exact repeats. Equal entries are not always repeated. Toxic doses and inconclusive results are not listed. Rule as the data show it: active = T/C of 150% or more; inactive = T/C below 125%.

Test system: L1210 leukemia ip in BDF1 mice, survival T/C
Assay: NCI In Vivo Anticancer Drug Screen. Data for tumor model L1210 Leukemia (intraperitoneal) in B6D2F1 (BDF1) mice
Conditions: endpoint: mean survival time, higher = longer survival
Outline: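 Antitumor effect is assessed in tumor-bearing animals. Survival in the compound arm is compared with a vehicle-dosed control arm and expressed as their quotient.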

[1] = dose: 100.0 mg/kg/injection, schedule: Q01DX009 (ip), vehicle: Klucel (hydroxypropylcellulose) (HPC)
[2] = dose: 100.0 mg/kg/injection, schedule: Q04DX003 (ip), vehicle: saline
[3] = dose: 200.0 mg/kg/injection, schedule: Q04DX003 (ip), vehicle: saline
[4] = dose: 100.0 mg/kg/injection, schedule: Q01DX001 (ip), vehicle: carboxymethylcellulose (CMC)
[5] = dose: 200.0 mg/kg/injection, schedule: Q01DX001 (ip), vehicle: carboxymethylcellulose (CMC)
[6] = dose: 400.0 mg/kg/injection, schedule: Q01DX001 (ip), vehicle: carboxymethylcellulose (CMC)
[7] = dose: 100.0 mg/kg/injection, schedule: Q04DX003 (ip), vehicle: Klucel (hydroxypropylcellulose) (HPC)
[8] = dose: 200.0 mg/kg/injection, schedule: Q04DX003 (ip), vehicle: Klucel (hydroxypropylcellulose) (HPC)
[9] = dose: 400.0 mg/kg/injection, schedule: Q04DX003 (ip), vehicle: Klucel (hydroxypropylcellulose) (HPC)
[10] = dose: 50.0 mg/kg/injection, schedule: Q04DX003 (ip), vehicle: Klucel (hydroxypropylcellulose) (HPC)
[11] = dose: 200.0 mg/kg/injection, schedule: Q01DX009 (ip), vehicle: Klucel (hydroxypropylcellulose) (HPC)
[12] = dose: 400.0 mg/kg/injection, schedule: Q01DX009 (ip), vehicle: Klucel (hydroxypropylcellulose) (HPC)
[13] = dose: 100.0 mg/kg/injection, schedule: Q01DX009 (ip), vehicle: saline with Tween-80
[14] = dose: 200.0 mg/kg/injection, schedule: Q01DX009 (ip), vehicle: saline with Tween-80
[15] = dose: 400.0 mg/kg/injection, schedule: Q01DX009 (ip), vehicle: saline with Tween-80
[16] = dose: 100.0 mg/kg/injection, schedule: Q01DX009 (ip), vehicle: saline
[17] = dose: 200.0 mg/kg/injection, schedule: Q01DX009 (ip), vehicle: saline
[18] = dose: 400.0 mg/kg/injection, schedule: Q01DX009 (ip), vehicle: saline
[19] = dose: 400.0 mg/kg/injection, schedule: Q04DX003 (ip), vehicle: saline

Measured: T/C

NNc1ncnc2c(C3OC(CO)C(O)C3O)[nH]nc12 (stereo unspecified)
inactive: dose: 12.5 mg/kg/injection, schedule: Q01DX009 (ip), vehicle: Klucel (hydroxypropylcellulose) (HPC) 111 % of control | dose: 20.0 mg/kg/injection, schedule: Q01DX009 (ip), vehicle: water 107 % of control | dose: 25.0 mg/kg/injection, schedule: Q01DX005 (ip), vehicle: Klucel (hydroxypropylcellulose) (HPC) 118 % of control | dose: 30.0 mg/kg/injection, schedule: Q01DX009 (ip), vehicle: water 107 % of control | dose: 45.0 mg/kg/injection, schedule: Q01DX009 (ip), vehicle: water 112 % of control | dose: 50.0 mg/kg/injection, schedule: Q01DX005 (ip), vehicle: Klucel (hydroxypropylcellulose) (HPC) 124 % of control | dose: 50.0 mg/kg/injection, schedule: Q01DX005 (ip), vehicle: saline 118 % of control | dose: 50.0 mg/kg/injection, schedule: Q01DX009 (ip), vehicle: Klucel (hydroxypropylcellulose) (HPC) 113 % of control | dose: 67.0 mg/kg/injection, schedule: Q01DX009 (ip), vehicle: water 122 % of control | [1] 122 % of control | [2] 118 % of control | dose: 100.0 mg/kg/injection, schedule: Q08DX002 (ip), vehicle: saline 102 % of control | dose: 150.0 mg/kg/injection, schedule: Q01DX009 (ip), vehicle: saline 120 % of control | dose: 200.0 mg/kg/injection, schedule: Q01DX005 (ip), vehicle: Klucel (hydroxypropylcellulose) (HPC) 106 % of control | dose: 200.0 mg/kg/injection, schedule: Q01DX005 (ip), vehicle: saline 106 % of control | [3] 122 % of control | dose: 200.0 mg/kg/injection, schedule: Q08DX002 (ip), vehicle: saline 122 % of control | dose: 800.0 mg/kg/injection, schedule: Q08DX002 (ip), vehicle: saline 104 % of control

CCCCC(=O)N/N=C\c1cccc(I)c1
inactive: [4] 87 % of control | [5] 93 % of control | [6] 87 % of control

Cc1cc(C(=O)C[n+]2ccccc2)c(CN2C(=O)c3ccccc3C2=O)c(=O)n1C
inactive: dose: 100.0 mg/kg/injection, schedule: Q01DX001 (ip), vehicle: water 102 % of control

NC(=O)NC(NC(=O)NC(NC(N)=O)c1ccco1)c1ccco1 (stereo unspecified)
inactive: [7] 102 % of control | [8] 96 % of control | [9] 88 % of control

Cc1c[n+](Cc2ccccc2)cc(C)n1
inactive: dose: 75.0 mg/kg/injection, schedule: Q01DX001 (ip), vehicle: saline 105 % of control | dose: 150.0 mg/kg/injection, schedule: Q01DX001 (ip), vehicle: saline 98 % of control

CCc1cccc2ccccc12
inactive: [10] 100 % of control | [1] 90 % of control | [7] 98 % of control | [11] 92 % of control | [8] 107 % of control | [12] 96 % of control | [9] 96 % of control

CCC(=O)O[C@H]1CC[C@H]2[C@@H]3C[C@H](F)C4=CC(=O)CC[C@]4(C)[C@H]3CC[C@]12C
inactive: [13] 102 % of control | [14] 93 % of control | [15] 91 % of control

O=C1c2ccccc2C2NCCCN12 (stereo unspecified)
inactive: [16] 102 % of control | [17] 100 % of control | [18] 96 % of control

O=P(NCCCO)(Oc1ccccc1)N(CCCl)CCCl (stereo unspecified)
inactive: dose: 125.0 mg/kg/injection, schedule: Q01DX Z (ip), vehicle: saline 95 % of control | dose: 250.0 mg/kg/injection, schedule: Q01DX Z (ip), vehicle: saline 102 % of control | dose: 500.0 mg/kg/injection, schedule: Q01DX Z (ip), vehicle: saline 102 % of control

O=C(Nc1cccc(C(F)(F)F)c1)C(c1ccccc1)c1ccccc1
inactive: [10] 98 % of control | [1] 100 % of control | [7] 110 % of control | [11] 100 % of control | [8] 93 % of control | [9] 101 % of control

COc1ccc(C(O)(c2ccccc2)C(O)c2ccccc2)cc1 (stereo unspecified)
inactive: [13] 98 % of control | [14] 88 % of control | [15] 86 % of control

S=Cc1cccc2c1CCCC2
inactive: [16] 111 % of control | [17] 100 % of control | [18] 97 % of control

CC(=O)N(C(C)=O)c1ccc(N=Nc2ccccc2C)cc1C
inactive: dose: 50.0 mg/kg/injection, schedule: Q01DX009 (ip), vehicle: saline with Tween-80 94 % of control | [13] 86 % of control | [2] 94 % of control | [14] 106 % of control | [3] 94 % of control | [19] 92 % of control

O=C(O)CC/C(=N/OCc1cc2c(cc1Cl)OCO2)C(=O)O
inactive: dose: 100.0 mg/kg/injection, schedule: Q04DX003 (ip), vehicle: saline sonified 108 % of control | dose: 200.0 mg/kg/injection, schedule: Q04DX003 (ip), vehicle: saline sonified 93 % of control | dose: 400.0 mg/kg/injection, schedule: Q04DX003 (ip), vehicle: saline sonified 91 % of control

Nc1cc(S(N)(=O)=O)ccc1N1CCCC1
inactive: dose: 100.0 mg/kg/injection, schedule: Q04DX003 (ip), vehicle: saline with Tween-80 96 % of control | dose: 200.0 mg/kg/injection, schedule: Q04DX003 (ip), vehicle: saline with Tween-80 91 % of control | dose: 400.0 mg/kg/injection, schedule: Q04DX003 (ip), vehicle: saline with Tween-80 102 % of control

ClC(c1ccccc1)C1(Br)C=c2ccccc2=C1 (stereo unspecified)
inactive: [1] 97 % of control | [11] 97 % of control | [8] 105 % of control and 91 % of control | [9] 94 % of control and 103 % of control

O=[N+]([O-])C(CO)(CO)CO
inactive: [2] 104 % of control | [3] 101 % of control | [19] 101 % of control

COc1cc2c(cc1OC)/C(=N\O)CCCC2
inactive: dose: 100.0 mg/kg/injection, schedule: Q01DX009 (ip), vehicle: saline sonified 97 % of control | [7] 96 % of control | dose: 200.0 mg/kg/injection, schedule: Q01DX009 (ip), vehicle: saline sonified 94 % of control | [8] 94 % of control | dose: 400.0 mg/kg/injection, schedule: Q01DX009 (ip), vehicle: saline sonified 100 % of control | [9] 97 % of control

C[N+](C)(C)Cc1c(C(O)(c2ccccc2)c2ccccc2)ccc2ccccc12
inactive: dose: 50.0 mg/kg/injection, schedule: Q01DX001 (ip), vehicle: carboxymethylcellulose (CMC) 94 % of control | [4] 96 % of control

ClCCN(CCCl)c1ccc(-c2csc(Cc3ccccc3)n2)cc1
inactive: [4] 93 % of control | [5] 92 % of control | [6] 93 % of control

CCCCNCCO
inactive: dose: 25.0 mg/kg/injection, schedule: Q01DX009 (ip), vehicle: saline 96 % of control | dose: 50.0 mg/kg/injection, schedule: Q01DX009 (ip), vehicle: saline 100 % of control | [16] 115 % of control

COC(=O)C1CC=CC(C)C1C(=O)OC (stereo unspecified)
inactive: [1] 105 % of control | [11] 103 % of control | [12] 100 % of control

CN(C)C(=O)Nc1ccc2c(c1)OCO2
inactive: dose: 75.0 mg/kg/injection, schedule: Q01DX009 (ip), vehicle: Klucel (hydroxypropylcellulose) (HPC) 107 % of control | dose: 100.0 mg/kg/injection, schedule: Q01DX001 (ip), vehicle: Klucel (hydroxypropylcellulose) (HPC) 111 % of control | dose: 150.0 mg/kg/injection, schedule: Q01DX009 (ip), vehicle: Klucel (hydroxypropylcellulose) (HPC) 110 % of control | dose: 200.0 mg/kg/injection, schedule: Q01DX001 (ip), vehicle: Klucel (hydroxypropylcellulose) (HPC) 104 % of control | dose: 300.0 mg/kg/injection, schedule: Q01DX009 (ip), vehicle: Klucel (hydroxypropylcellulose) (HPC) 102 % of control
